According to ChEMBL document CHEMBL6074643, “Harnessing dual-mode RIPK1 ligands for cross-species anti-necroptosis inhibitor compounds” (Bioorg Med Chem Lett, 2024):
Active and inactive are the calls of the source. The rule behind the calls is not given here.

How the values were obtained:
[1] = target: T1, Receptor-interacting serine/threonine-protein kinase 1 (Homo sapiens, UniProt Q13546); experiment: Inhibition of human RIPK1 by ADP-Glo kinase assay
T1 sequence (Q13546 whole entry): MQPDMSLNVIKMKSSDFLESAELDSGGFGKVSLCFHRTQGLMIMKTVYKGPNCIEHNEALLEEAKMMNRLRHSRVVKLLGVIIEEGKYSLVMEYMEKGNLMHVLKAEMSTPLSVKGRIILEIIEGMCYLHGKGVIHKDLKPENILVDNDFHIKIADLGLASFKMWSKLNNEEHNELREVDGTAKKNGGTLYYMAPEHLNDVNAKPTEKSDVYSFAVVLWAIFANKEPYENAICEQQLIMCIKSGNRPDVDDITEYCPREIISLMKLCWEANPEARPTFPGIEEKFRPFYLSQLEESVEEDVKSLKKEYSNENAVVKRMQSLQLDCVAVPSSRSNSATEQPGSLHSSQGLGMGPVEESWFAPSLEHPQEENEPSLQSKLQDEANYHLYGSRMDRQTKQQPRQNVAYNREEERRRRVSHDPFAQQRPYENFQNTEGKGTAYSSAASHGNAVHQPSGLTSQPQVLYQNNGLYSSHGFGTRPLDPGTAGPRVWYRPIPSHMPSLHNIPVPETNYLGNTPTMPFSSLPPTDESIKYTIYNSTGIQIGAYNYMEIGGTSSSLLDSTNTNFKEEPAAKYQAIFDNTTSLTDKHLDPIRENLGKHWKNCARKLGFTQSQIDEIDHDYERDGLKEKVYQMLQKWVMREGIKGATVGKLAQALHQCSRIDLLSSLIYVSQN

[2] = Intrinsic clearance in mouse liver microsomes measured per mg protein; format: ADME, Microsome; conditions: read-out: CLH
[3] = Intrinsic clearance in human liver microsomes measured per mg protein; format: ADME, Microsome; conditions: read-out: CLH
[4] = Plasma concentration in non-fasted NMRI mouse at 10 mg/kg, po measured after 0.5 hrs by HPLC-MS analysis; format: ADME, organism-based
[5] = Plasma concentration in non-fasted NMRI mouse at 10 mg/kg, po measured after 2 hrs by HPLC-MS analysis; format: ADME, organism-based
Mus musculus = experiment: In vivo inhibition of RIPK1 in TNF-alpha-induced acute hypothermia NMRI mouse model assessed as decrease in TNF-alpha-induced severe core body temperature loss at 30 mg/kg, po administered 15 mins prior to TNF-alpha challenge and measured at 90 mins interval for 6 hrs; format: functional, organism-based; conditions: time 375.0 min

Row | SMILES | Ki [1] [nM] | microsomal CLint [2] [µL/min/mg] | microsomal CLint [3] [µL/min/mg] | concentration at 0.5 h [4] [nM] | concentration at 2 h [5] [nM] | inhibition (Mus musculus)
1 | CN1C(=O)[C@@H](NC(=O)c2nnc(Cc3ccccc3)[nH]2)COc2cccnc21 [ECLITASERTIB] | 2 | – | – | – | – | –
2 | CN1C(=O)C(C(=O)Nc2cn(Cc3ccccc3)cn2)CCc2cc(C#CC(C)(C)O)ccc21 (configuration not stated) | 251 | 29.4 | 6.6 | – | – | –
3 | CN1C(=O)C(C(=O)Nc2cn(Cc3ccccc3)cn2)CCc2cc(Br)ccc21 (configuration not stated) | 363 | 176 | 31.1 | – | – | –
4 | COC(C)(C)C#Cc1ccc2c(c1)N(C)C(=O)C(C(=O)Nc1cn(Cc3ccccc3)cn1)CC2 (configuration not stated) | 25.7 | 210 | 194 | – | – | –
5 | CN1C(=O)[C@@H](C(=O)Nc2cn(Cc3ccccc3)cn2)CCc2ccc(C#CC(C)(C)O)cc21 | 11.5 | 33 | 7.6 | 1340 | 329 | Active
6 | CN1C(=O)C(C(=O)Nc2cn(Cc3ccccc3)cn2)CCc2ccc(C#CC3(O)COC3)cc21 (configuration not stated) | 38 | 128 | 44.4 | – | – | –
7 | CN1C(=O)C(C(=O)Nc2cn(Cc3ccccc3)cn2)CCc2cc(C#CC3(O)COC3)ccc21 (configuration not stated) | 191 | 42.2 | 18.2 | – | – | –
8 | CN1C(=O)C(C(=O)Nc2cn(Cc3ccccc3)cn2)CCc2ccc(C#CC3CCOCC3)cc21 (configuration not stated) | 22.4 | 234 | 106 | – | – | –
9 | CN1C(=O)C(C(=O)Nc2cn(Cc3ccccc3)cn2)CCc2ccc(Br)cc21 (configuration not stated) | 87.1 | 211 | 75.7 | – | – | –
10 | CC(C)C#Cc1ccc2c(c1)N(C)C(=O)C(C(=O)Nc1cn(Cc3ccccc3)cn1)CC2 (configuration not stated) | 75.9 | 693 | 99 | – | – | –
11 | CN1C(=O)C(C(=O)Nc2cn(Cc3ccccc3)cn2)CCc2ccc(C#CC(C)(C)N)cc21 (configuration not stated) | 66.1 | 50.8 | 21.1 | – | – | –
12 | CN1C(=O)C(C(=O)Nc2cn(Cc3ccccc3)cn2)CCc2ccc(C#CC3(C)COC3)cc21 (configuration not stated) | 28.2 | 238 | 124 | – | – | –
13 | CC(=O)NC(C)(C)C#Cc1ccc2c(c1)N(C)C(=O)C(C(=O)Nc1cn(Cc3ccccc3)cn1)CC2 (configuration not stated) | 27.5 | 29 | 7.7 | – | – | –
14 | CN1C(=O)C(C(=O)Nc2cn(Cc3ccccc3)cn2)CCc2ccc(C#CC(C)(C)O)cc21 (racemic) | 58.9 | 158 | 26.5 | – | – | –
15 | CC#Cc1ccc2c(c1)N(C)C(=O)C(C(=O)Nc1cn(Cc3ccccc3)cn1)CC2 (configuration not stated) | 35.5 | 312 | 105 | – | – | –
16 | CN1C(=O)C(C(=O)Nc2cn(Cc3ccccc3)cn2)CCc2ccc(C#CC3CC3)cc21 (configuration not stated) | 28.8 | 300 | 66.5 | – | – | –
17 | CN1C(=O)[C@H](C(=O)Nc2cn(Cc3ccccc3)cn2)CCc2ccc(C#CC(C)(C)O)cc21 | 398 | 202 | 32.7 | – | – | –
